How the values were obtained:
[1] = target: GDP-bound NRAS wild-type protein (Homo sapiens, UniProt P01111); experiment: Binding to NRAS by surface plasmon resonance (SPR), Single Cycle Kinetics
[2] = target: GDP-bound HRAS wild-type protein (Homo sapiens, UniProt P01112); experiment: Binding to HRAS by surface plasmon resonance (SPR), Single Cycle Kinetics
[3] = SPR, GDP-bound NRAS wild-type protein vs GDP-bound KRAS wild-type protein
[4] = SPR, GDP-bound HRAS wild-type protein vs GDP-bound KRAS wild-type protein

Sequence of GDP-bound NRAS wild-type protein (P01111 whole entry): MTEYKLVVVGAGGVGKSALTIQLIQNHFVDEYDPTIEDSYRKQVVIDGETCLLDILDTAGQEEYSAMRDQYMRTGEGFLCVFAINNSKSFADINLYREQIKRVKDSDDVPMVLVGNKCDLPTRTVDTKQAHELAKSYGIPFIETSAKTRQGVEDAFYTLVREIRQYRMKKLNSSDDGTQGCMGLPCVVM
Sequence of GDP-bound HRAS wild-type protein (P01112 whole entry): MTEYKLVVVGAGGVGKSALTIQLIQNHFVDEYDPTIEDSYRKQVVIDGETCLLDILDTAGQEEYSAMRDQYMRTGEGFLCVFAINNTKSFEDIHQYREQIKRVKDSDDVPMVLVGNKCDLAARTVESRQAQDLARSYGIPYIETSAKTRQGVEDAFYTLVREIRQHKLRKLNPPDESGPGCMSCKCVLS

Row | SMILES | NRAS/KRAS (ratio of KD value for NRAS to KD value for KRAS) [1, 3] | HRAS/KRAS (ratio of KD value for HRAS to KD value for KRAS) [2, 4] | further results
1 | CCOC[C@H]1C(=O)N[C@@H]([C@@H](C)CC)C(=O)N(C2CC2)CC(=O)N(C)[C@H]2C/C=C\CCN(C2=O)[C@@H](Cc2ccc(C(F)(F)F)cc2)C(=O)N(C)CC(=O)N[C@@H](CCc2ccc(C(F)(F)F)c(OC)c2)C(=O)N2C[C@H](OCC)C[C@H]2C(=O)N(C)C2(CCC2)C(=O)N(C)[C@@H](C(CC)CC)C(=O)N(C)[C@H](C(=O)N(C)C)CC(=O)N1C [PP2315] | A (a compound having 10 or more and less than 20 is denoted as A) | A (a compound having 10 or more and less than 20 is denoted as A) | –
2 | CCCN1C(=O)CN(C)C(=O)CN(C)C(=O)[C@H]([C@@H](C)CC)NC(=O)[C@@H]2COCC=CC[C@@](C)(NC(=O)[C@@H]3C[C@@H](OCC)CN3C(=O)[C@H](CCc3cc(F)c(C(F)(F)F)c(F)c3)NC(=O)CN(C)C(=O)[C@@H]1Cc1ccc(C(F)(F)F)cc1)C(=O)N(C)[C@@H](C1CCCC1)C(=O)N(C)[C@H](C(=O)N1CCOCC1)CC(=O)N2C (stereo in doubt) [PP0903] | B (a compound having 3 or more and less than 10 is denoted as B) | C (A compound having a KD ratio of 0.1 or more and less than 3 is denoted as C) | –
3 | CCC[C@H]1C(=O)N[C@@H](C2CCCCC2)C(=O)N(C)CC(=O)N(C)[C@H]2C/C=C\CCN(C2=O)[C@@H](Cc2ccc(C)cc2)C(=O)N(C)CC(=O)N[C@@H](CCc2ccc(C(F)(F)F)c(Cl)c2)C(=O)N2C[C@H](OCC)C[C@H]2C(=O)NC2(CC(C)(C)C2)C(=O)N(C)[C@@H](C2CCCC2)C(=O)N(C)[C@H](C(=O)N(C)C)CC(=O)N1C [PP2998] | A (a compound having 10 or more and less than 20 is denoted as A) | AA (a compound having 20 or more is denoted as AA) | –
4 | CCO[C@@H]1C[C@H]2C(=O)NC3(CCC3)C(=O)N(C)[C@@H](C3CCCC3)C(=O)N(C)[C@H](C(=O)N(C)C)CC(=O)N(C)[C@@H](CC(C)C)C(=O)N[C@@H]([C@@H](C)CC)C(=O)N(C)CC(=O)N(C)[C@H]3CC(C)=CCN(C3=O)[C@@H](Cc3ccc(C(F)(F)F)cc3)C(=O)N(C)CC(=O)N[C@@H](CCc3cc(F)c(C(F)(F)F)c(F)c3)C(=O)N2C1 [PP1032] | C (A compound having a KD ratio of 0.1 or more and less than 3 is denoted as C) | C (A compound having a KD ratio of 0.1 or more and less than 3 is denoted as C) | –
5 | CCO[C@@H]1C[C@H]2C(=O)NC3(CCC3)C(=O)N(C)[C@@H](C3CCCC3)C(=O)N(C)[C@H](C(=O)N3CCOCC3)CC(=O)N(C)[C@@H](CC3CC3)C(=O)N[C@@H]([C@@H](C)CC)C(=O)N(C)CC(=O)N(C)[C@H]3CCCCCN(C3=O)[C@@H](Cc3ccc(C(F)(F)F)cc3)C(=O)N(C)CC(=O)N[C@@H](CCc3cc(F)c(C(F)(F)F)c(F)c3)C(=O)N2C1 [PP0682] | – | – | NRAS/KRAS (ratio of KD value with respect to NRAS to KD value with respect to KRAS) [1, 3]: B (a compound having 3 or more and less than 10 is denoted as B); HRAS/KRAS (ratio of KD value with respect to HRAS to KD value with respect to KRAS) [2, 4]: B (a compound having 3 or more and less than 10 is denoted as B)
6 | CC[C@H](C)[C@@H]1NC(=O)[C@H](CC(C)C)N(C)C(=O)C[C@@H](C(=O)N2CCOCC2)N(C)C(=O)[C@H](C2CCCC2)N(C)C(=O)C2(CCC2)NC(=O)[C@@H]2C[C@@H](OCC(F)F)CN2C(=O)[C@H](CCc2cc(F)c(C(F)(F)F)c(F)c2)NC(=O)CN(C)C(=O)[C@H](Cc2ccc(C(F)(F)F)cc2)N2CCCCC[C@@H](C2=O)N(C)C(=O)CN(C)C1=O [PP1006] | B (a compound having 3 or more and less than 10 is denoted as B) | B (a compound having 3 or more and less than 10 is denoted as B) | –
7 | CCC[C@H]1C(=O)N[C@@H]([C@@H](C)CC)C(=O)N(C2CC2)CC(=O)N(C)[C@H]2C/C=C\CCN(C2=O)[C@@H](Cc2ccc(C)cc2)C(=O)N(C)CC(=O)N[C@@H](CCc2ccc(C(F)(F)F)c(OC)c2)C(=O)N2C[C@H](OCC)C[C@H]2C(=O)N(C)C2(CCC2)C(=O)N(C)[C@@H](C(CC)CC)C(=O)N(C)[C@H](C(=O)N(C)C)CC(=O)N1C [PP2325] | A (a compound having 10 or more and less than 20 is denoted as A) | A (a compound having 10 or more and less than 20 is denoted as A) | –
8 | CCOC[C@H]1C(=O)N[C@@H]([C@@H](C)CC)C(=O)N(C)CC(=O)N(C)[C@H]2C/C=C\CCN(C2=O)[C@@H](Cc2ccc(CC)cc2)C(=O)N(C)CC(=O)N[C@@H](CCc2ccc(C(F)(F)F)c(OC)c2)C(=O)N2C[C@@H](C)C[C@H]2C(=O)NC2(CC(C)(C)C2)C(=O)N(C)[C@@H](C2CCCC2)C(=O)N(C)[C@H](C(=O)N(C)CC)CC(=O)N1C (stereo in doubt) [PP2696] | – | – | NRAS/KRAS (ratio of KD value with respect to GDP-bound NRAS wild-type protein to KD value with respect to KRAS) ([1]; SPR KD ratio NRAS/KRAS, class symbols): A (a compound having 10 or more and less than 20 is denoted as A); HRAS/KRAS (ratio of KD value with respect to GDP-bound HRAS wild-type protein to KD value with respect to KRAS) ([2]; SPR KD ratio HRAS/KRAS, class symbols): B (a compound having 3 or more and less than 10 is denoted as B)
9 | CCO[C@@H]1C[C@H]2C(=O)NC3(CCC3)C(=O)N(C)[C@@H](C3CCCC3)C(=O)N(C)[C@H](C(=O)N(C)C)CC(=O)N(C)[C@@H](CC)C(=O)N[C@@H]([C@@H](C)CC)C(=O)N3CCCC[C@H]3C(=O)N(C)[C@H]3C/C=C\CCN(C3=O)[C@@H](Cc3ccc(C(F)(F)F)cc3)C(=O)N(C)CC(=O)N[C@@H](CCc3cc(F)c(C(F)(F)F)c(F)c3)C(=O)N2C1 [PP1058] | A (a compound having 10 or more and less than 20 is denoted as A) | B (a compound having 3 or more and less than 10 is denoted as B) | –
10 | CCO[C@@H]1C[C@H]2C(=O)NC3(CCC3)C(=O)N(C)[C@@H](C3CCCC3)C(=O)N(C)[C@H](C(=O)N(C)C)CC(=O)N(C)[C@@H](CC(C)C)C(=O)N[C@@H]([C@@H](C)CC)C(=O)N(C)CC(=O)N(C)[C@H]3C[C@@H](C)CCN(C3=O)[C@@H](Cc3ccc(C(F)(F)F)cc3)C(=O)N(C)CC(=O)N[C@@H](CCc3cc(F)c(C(F)(F)F)c(F)c3)C(=O)N2C1 [PP1018] | C (A compound having a KD ratio of 0.1 or more and less than 3 is denoted as C) | B (a compound having 3 or more and less than 10 is denoted as B) | –
11 | CCC[C@H]1C(=O)N[C@@H](C2CCOCC2)C(=O)N(C)CC(=O)N(C)[C@H]2C/C=C\CCN(C2=O)[C@@H](Cc2ccc(C)cc2)C(=O)N(C)CC(=O)N[C@@H](CCc2ccc(C(F)(F)F)c(Cl)c2)C(=O)N2C[C@H](OCC)C[C@H]2C(=O)NC2(CC(C)(C)C2)C(=O)N(C)[C@@H](C2CCCC2)C(=O)N(C)[C@H](C(=O)N(C)C)CC(=O)N1C [PP3002] | A (a compound having 10 or more and less than 20 is denoted as A) | A (a compound having 10 or more and less than 20 is denoted as A) | –
12 | CCC[C@H]1C(=O)N[C@@H](C(CC)CC)C(=O)N(C)CC(=O)N(C)[C@H]2C/C=C\CCN(C2=O)[C@@H](Cc2ccc(C)cc2)C(=O)N(C)CC(=O)N[C@@H](CCc2ccc(C(F)(F)F)c(Cl)c2)C(=O)N2C[C@H](OCC)C[C@H]2C(=O)NC2(CC(C)(C)C2)C(=O)N(C)[C@@H](CC(C)C)C(=O)N(C)[C@H](C(=O)N(C)C)CC(=O)N1C [PP2202] | A (a compound having 10 or more and less than 20 is denoted as A) | A (a compound having 10 or more and less than 20 is denoted as A) | –

— patent publication US20240158446A1, “CYCLIC COMPOUND HAVING SELECTIVE INHIBITORY ACTION ON KRAS OVER HRAS AND NRAS” (CHUGAI SEIYAKU KABUSHIKI KAISHA, priority 2021, published 2024)
